The subject of data set [1] is ovulation in mature female Sprague-Dawley rats. Nature of the data set: standard in vivo rat anti-ovulation test. As to conditions: injected in bacteriostatic water at about noon on the day of proestrus. As to the method: (§1) The betide is assayed in vivo to determine its effectiveness to prevent ovulation in female rats. Inthis test, a specified number of mature female Sprague-Dawley rats, e.g. five to ten, each having a body weight from 225 to 250 grams, are injected with a specified microgram dosage of the betide in bacteriostatic water at about noon on the day of proestrus. Proestrus is the […]. A separate female rat group is used as a control to which the peptide is not administered. Each of the control female rats ovulates on the evening of proestrus; the number of the rats treated which ovulate is recorded.

The nature of data set [2]: hydrophilicity by RP-HPLC retention. The class given is physicochemical. As to conditions: for hydrophilicity compared to Acyline: RP-HPLC; for RP-HPLC retention (hydrophilicity): gradient 40% to 75% Buffer B over 30 minutes, Buffer A TEAP pH 7.3, Buffer B 60% CH3CN and 40% Buffer A.
Data set [3] in a line: examination of injected rats for tolerance and gelling at the point of injection. The class given is in vivo, rat. The conditions noted are these: after injection in the anti-ovulation test. On the procedure: as §1
A further data set concerns circulating LH. Nature of the data set: suppression of circulating LH concentrations, duration of bioactivity. The class given is in vivo. The conditions noted are these: dose of 50 micrograms per rat; for duration of bioactivity (LH suppression): testing as in Example 1.

Non-standard residues stand in square brackets, D forms with d. Residues, ends and D or L forms follow the SMILES beside them. dPhe(4-NH2) = Nc1ccc(C[C@@H](N)C(=O)O)cc1; dPhe(4-Cl) = N[C@H](Cc1ccc(Cl)cc1)C(=O)O; Phe(4-NH2) = Nc1ccc(C[C@H](N)C(=O)O)cc1; d2Nal = N[C@H](Cc1ccc2ccccc2c1)C(=O)O; Lys(iPr) = CC(C)NCCCC[C@H](N)C(=O)O; d3Pal = N[C@H](Cc1cccnc1)C(=O)O

Regarding “Ac-D-2Nal-(4Cl)D-Phe-D-3Pal-Ser-Aph(acetyl)-D-Aph(acetyl)-Leu-Lys(isopropyl)-Pro-D/L-Agl-NH2 [Betide No. 8A]”, the “anti-ovulatory activity: rats ovulating out of rats treated” value (“anti-ovulatory activity” below) in data set [1] (dosage 2.5 μg) is on record as 0 out of 8. For the same molecule, the “hydrophilicity compared to Acyline” value in data set [2] is “more hydrophilic than Acyline”.

Turning to “Ac-D-2Nal-(4Cl)D-Phe-D-3Pal-Ser-Aph(acetyl)-D-Aph(acetyl)-Leu-D/L-Agl(acetyl-β-Ala)-Pro-D-Ala-NH2 [Betide No. 7]”, the “anti-ovulatory activity” value in data set [1] (dosage 2.5 μg) was 3 out of 9; in data set [1] (dosage 5 μg), 0 out of 11. For the same molecule, the “hydrophilicity compared to Acyline” value in data set [2] is listed as “more hydrophilic than Acyline”.

For the molecule `CC(=O)Nc1ccc(C[C@H](NC(=O)[C@H](CO)NC(=O)C(NC(=O)c2ccncc2)NC(=O)[C@@H](Cc2ccc(Cl)cc2)NC(=O)[C@@H](Cc2ccc3ccccc3c2)NC(C)=O)C(=O)N[C@H](Cc2ccc(NC(C)=O)cc2)C(=O)N[C@@H](CC(C)C)C(=O)N[C@@H](CCCCNC(C)C)C(=O)N2CCC[C@H]2C(=O)N[C@H](C)C(N)=O)cc1` (single isomer, unassigned) [Betide No. 1A second isomer, Ac-β-D-2Nal-D-4Cpa-γ-(4-pyridyl)D/L-amidoGly-Ser-Aph(acetyl)-D- Aph(acetyl)-Leu-Lys(isopropyl)-Pro-D-Ala-NH2], the “anti-ovulatory activity” value in data set [1] (dosage 2.5 μg) was 2 out of 8; in data set [1] (dosage 10 μg), 0 out of 8. Besides, the “hydrophilicity compared to Acyline” value in data set [2] is “more hydrophilic than Acyline”.

As to `CC(=O)Nc1ccc(C[C@H](NC(=O)[C@H](CO)NC(=O)C(NC(=O)[C@@H](Cc2ccc(Cl)cc2)NC(=O)[C@@H](Cc2ccc3ccccc3c2)NC(C)=O)N(C)C(=O)c2cccnc2)C(=O)N[C@H](Cc2ccc(NC(C)=O)cc2)C(=O)N[C@@H](CC(C)C)C(=O)N[C@@H](CCCCNC(C)C)C(=O)N2CCC[C@H]2C(=O)N[C@H](C)C(N)=O)cc1` (single isomer, unassigned) [Betide No. 1B second isomer, Ac-β-D-2Nal-D-Cpa-γ-(3-pyridyl)methylD/L-amidoGly-Ser-Aph(acetyl)-D-Aph(acetyl)-Leu-Lys(isopropyl)-Pro-D-Ala-NH2], the “anti-ovulatory activity” value in data set [1] (dosage 2.5 μg) is 3 out of 8. Besides, the “hydrophilicity compared to Acyline” value in data set [2] is “more hydrophilic than Acyline”.

With `CC(=O)Nc1ccc(C[C@H](NC(=O)[C@H](CO)NC(=O)C(NC(=O)c2cccnc2)NC(=O)[C@@H](Cc2ccc(Cl)cc2)NC(=O)[C@@H](Cc2ccc3ccccc3c2)NC(C)=O)C(=O)N[C@H](Cc2ccc(NC(C)=O)cc2)C(=O)N[C@@H](CC(C)C)C(=O)N[C@@H](CCCCNC(C)C)C(=O)N2CCC[C@H]2C(=O)N[C@H](C)C(N)=O)cc1` (single isomer, unassigned) [Betide No. 1, Ac-D-2Nal-(4Cl)D-Phe-γ-(3-pyridyl)amidoGly-Ser-Aph(acetyl)-D-Aph(acetyl)-Leu-Lys(isopropyl)-Pro-D-Ala-NH2], in data set [3], the “gelling at the point of injection” value is reported as “no significant gelling” and the “tolerance in treated rats” value is “very well tolerated”. Moreover, in the data set on circulating LH (for 48 hours or more), the “circulating LH concentrations relative to control levels” value is listed as “less than 25 % of control levels”. For the same molecule, the “duration of bioactivity (LH suppression)” value in the data set on circulating LH is ≥ 48 h. Moreover, in data set [2], the “hydrophilicity compared to Acyline” value is given as “more hydrophilic” and the “RP-HPLC retention (hydrophilicity)” value is 23.5 min.

With `CC(=O)Nc1ccc(C[C@H](NC(=O)[C@H](CO)NC(=O)[C@@H](Cc2cccnc2)NC(=O)[C@@H](Cc2ccc(Cl)cc2)NC(=O)C(NC(C)=O)NC(=O)c2ccc3ccccc3c2)C(=O)N[C@H](Cc2ccc(NC(C)=O)cc2)C(=O)N[C@@H](CC(C)C)C(=O)N[C@@H](CCCCNC(C)C)C(=O)N2CCC[C@H]2C(=O)N[C@H](C)C(N)=O)cc1` (single isomer, unassigned) [Betide No. 3, Ac-γ-(2-naphthoyl)amidoGly-4Cl-D-Phe-D-3Pal-Ser-Aph(acetyl)-D-Aph(acetyl)-Leu-Lys(isopropyl)-Pro-D-Ala-NH2], the “anti-ovulatory activity” value in data set [1] (dosage 1 μg) is reported as 2 out of 7; in data set [1] (dosage 2.5 μg) it was 0/8. The “duration of bioactivity (LH suppression)” value in the data set on circulating LH was ≥ 48 h.

For the molecule “Ac-2Nal-4Cl-D-Phe-D-3Pal-Ser-Aph(acetyl)-D-Aph(acetyl)-Leu-Lys(isopropyl)- Pro-D/L-Agl(methyl,For)-NH2 [Betide No. 8C]”, the “anti-ovulatory activity” value in data set [1] (dosage 1 μg) is listed as 1 out of 8; in data set [1] (dosage 2.5 μg) it was 0/8. Moreover, the “hydrophilicity compared to Acyline” value in data set [2] was “more hydrophilic than Acyline”.

With `CC(=O)Nc1ccc(C[C@H](NC(=O)[C@H](CO)NC(=O)C(NC(=O)c2ccncc2)NC(=O)[C@@H](Cc2ccc(Cl)cc2)NC(=O)[C@@H](Cc2ccc3ccccc3c2)NC(C)=O)C(=O)N[C@H](Cc2ccc(NC(C)=O)cc2)C(=O)N[C@@H](CC(C)C)C(=O)N[C@@H](CCCCNC(C)C)C(=O)N2CCC[C@H]2C(=O)N[C@H](C)C(N)=O)cc1` (single isomer, unassigned) [Betide No. 1A first isomer, Ac-β-D-2Nal-D-4Cpa-γ-(4-pyridyl)D/L-amidoGly-Ser-Aph(acetyl)-D- Aph(acetyl)-Leu-Lys(isopropyl)-Pro-D-Ala-NH2], the “anti-ovulatory activity” value is listed as “only the second isomer was bioactive” in data set [1] (dosage 2.5 μg) and 3 out of 7 in data set [1] (dosage 10 μg). Besides, in data set [2], the “hydrophilicity compared to Acyline” value is listed as “more hydrophilic than Acyline”.

Turning to `CC(=O)Nc1ccc(C[C@H](NC(=O)[C@H](CO)NC(=O)C(NC(=O)[C@@H](Cc2ccc(Cl)cc2)NC(=O)[C@@H](Cc2ccc3ccccc3c2)NC(C)=O)N(C)C(=O)c2cccnc2)C(=O)N[C@H](Cc2ccc(NC(C)=O)cc2)C(=O)N[C@@H](CC(C)C)C(=O)N[C@@H](CCCCNC(C)C)C(=O)N2CCC[C@H]2C(=O)N[C@H](C)C(N)=O)cc1` (single isomer, unassigned) [Betide No. 1B first isomer, Ac-β-D-2Nal-D-Cpa-γ-(3-pyridyl)methylD/L-amidoGly-Ser-Aph(acetyl)-D-Aph(acetyl)-Leu-Lys(isopropyl)-Pro-D-Ala-NH2], the “anti-ovulatory activity” value in data set [1] (dosage 2.5 μg) was “only the second isomer was bioactive”. In data set [2], the “hydrophilicity compared to Acyline” value is “more hydrophilic than Acyline”.

As to “Ac-D-2Nal-D-4Cpa-D-3Pal-Ser-Aph(acetyl)-D-Aph(acetyl)-D/L-Agl(isobutyryl)- Lys(isopropyl)-Pro-D-Ala-NH2 [Betide No. 6A]”, the “anti-ovulatory activity” value in data set [1] (dosage 1 μg) is reported as 6 out of 8; in data set [1] (dosage 2.5 μg), 0 out of 8; in data set [1] (dosage 10 μg) it was 0 out of 8.

On to `CC(=O)Nc1ccc(C[C@H](NC(=O)[C@H](CO)NC(=O)[C@@H](Cc2cccnc2)NC(=O)[C@@H](Cc2ccc(Cl)cc2)NC(=O)[C@@H](Cc2ccc3ccccc3c2)NC(C)=O)C(=O)N[C@H](Cc2ccc(NC(C)=O)cc2)C(=O)N[C@@H](CC(C)C)C(=O)N[C@@H](CCCCNC(C)C)C(=O)N2CCC[C@H]2C(=O)N[C@H](C)C(N)=O)cc1` [Acyline, Ac-D-2Nal-D-4Cpa-D-3Pal-Ser-Aph(Ac)-D-Aph(Ac)-Leu-ILys-Pro-D-Ala-NH2, reference compound] (Ac-[d2Nal][dPhe(4-Cl)][d3Pal]S[Phe(4-NH2)](Ac)[dPhe(4-NH2)](Ac)L[Lys(iPr)]P[dA]-NH2), for which the “RP-HPLC retention (hydrophilicity)” value in data set [2] turned out to be 24.1 min.

In the case of `CC(=O)Nc1ccc(C[C@H](NC(=O)C(NC(=O)[C@@H](Cc2cccnc2)NC(=O)[C@@H](Cc2ccc(Cl)cc2)NC(=O)[C@@H](Cc2ccc3ccccc3c2)NC(C)=O)N(C)C=O)C(=O)N[C@H](Cc2ccc(NC(C)=O)cc2)C(=O)N[C@@H](CC(C)C)C(=O)N[C@@H](CCCCNC(C)C)C(=O)N2CCC[C@H]2C(=O)N[C@H](C)C(N)=O)cc1` (single isomer, unassigned) [Betide No. 2 other distereomer, Ac-D-2Nal-D-4Cpa-D-3Pal-D/L-(methyl,formyl)aminoGly-Aph(Ac)-D-Aph(Ac)-Leu- Lys(isopropyl)-Pro-D-Ala-NH2], the “anti-ovulatory activity” value in data set [1] (dosage 2.5 μg) is recorded as 8 out of 8.
